# Measurements: ChEMBL document CHEMBL5046285, “Probing Fluorinated Motifs onto Dual AChE-MAO B Inhibitors: Rational Design, Synthesis, Biological Evaluation, and Early-ADME Studies” (J Med Chem, 2022)
# Target: Cholinesterase (Equus caballus) (UniProt P81908)
# Assay: Inhibition of horse serum BChE at 10 uM by Ellman's spectrophotometric assay
# Assay type: cell-free
# Conditions: not given
# Sequence of Cholinesterase (Equus caballus) (P81908 whole entry): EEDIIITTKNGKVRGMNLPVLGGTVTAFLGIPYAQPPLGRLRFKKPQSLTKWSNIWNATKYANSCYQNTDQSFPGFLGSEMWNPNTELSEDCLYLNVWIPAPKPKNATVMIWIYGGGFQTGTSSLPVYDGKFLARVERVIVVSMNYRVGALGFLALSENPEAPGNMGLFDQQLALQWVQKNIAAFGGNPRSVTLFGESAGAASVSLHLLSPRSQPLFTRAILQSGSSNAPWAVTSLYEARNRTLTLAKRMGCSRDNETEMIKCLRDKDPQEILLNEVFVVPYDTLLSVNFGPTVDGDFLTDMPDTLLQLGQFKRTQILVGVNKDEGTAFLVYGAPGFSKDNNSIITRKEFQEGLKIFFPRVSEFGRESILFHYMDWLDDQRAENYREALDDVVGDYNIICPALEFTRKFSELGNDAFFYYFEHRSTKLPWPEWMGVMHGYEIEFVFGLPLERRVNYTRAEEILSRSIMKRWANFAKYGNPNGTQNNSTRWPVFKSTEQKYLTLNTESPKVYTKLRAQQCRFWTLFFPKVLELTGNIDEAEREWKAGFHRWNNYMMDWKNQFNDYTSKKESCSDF
row,Compound,inhibition
1,Cc1c(C)c2ccc(OCC3CCCN(CCCC(F)F)C3)cc2oc1=O (racemic),22%

# Target: T1, MAO-A (Homo sapiens, UniProt P21397)
# T1 sequence (P21397 whole entry): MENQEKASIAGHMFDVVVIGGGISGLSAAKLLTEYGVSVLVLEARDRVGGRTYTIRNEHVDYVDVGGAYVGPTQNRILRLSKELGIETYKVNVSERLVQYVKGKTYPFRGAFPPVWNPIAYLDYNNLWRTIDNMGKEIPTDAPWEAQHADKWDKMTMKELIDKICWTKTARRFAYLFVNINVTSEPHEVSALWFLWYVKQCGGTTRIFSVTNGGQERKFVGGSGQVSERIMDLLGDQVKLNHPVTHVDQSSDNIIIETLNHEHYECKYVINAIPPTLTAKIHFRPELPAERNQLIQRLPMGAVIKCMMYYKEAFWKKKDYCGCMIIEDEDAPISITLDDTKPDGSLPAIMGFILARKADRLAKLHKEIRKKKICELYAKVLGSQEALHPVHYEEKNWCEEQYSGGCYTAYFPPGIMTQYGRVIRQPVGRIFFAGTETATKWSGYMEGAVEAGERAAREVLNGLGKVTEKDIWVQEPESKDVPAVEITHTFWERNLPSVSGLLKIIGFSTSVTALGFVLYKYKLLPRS
# Assay: in vitro
# Conditions: recombinant MAO-A expressed in supersomes, probe kynuramine
row,Compound,inhibition at 10 µM
1,Cc1c(C)c2ccc(OCc3ccc(CN(C)CCCC(F)F)cc3)cc2oc1=O,45%
2,CN(Cc1ccccc1)Cc1ccc(COc2ccc3c(C(F)F)cc(=O)oc3c2)cc1,17%
3,Cc1c(C)c2ccc(OCC3CCN(CCCO)CC3)cc2oc1=O,50%

# System: not listed separately
# Assay: Microsomal stability in mouse liver microsomes assessed as half life at 0.5 uM incubated upto 30 mins in presence of NADPH by LC/MS/MS analysis
# Assay type: ADME, Microsome
# Conditions: not given
row,Compound,half-life at 0.5 µM
1,CN(Cc1ccccc1)Cc1ccc(COc2ccc3c(C(F)F)cc(=O)oc3c2)cc1,9.8 min
2,Cc1c(C)c2ccc(OCC3CCN(CCCO)CC3)cc2oc1=O,47.2 min
3,Cc1c(C)c2ccc(OCC3CCCN(CCCC(F)F)C3)cc2oc1=O (racemic),17.8 min

# System: not listed separately
# Assay: Effective permeability of the compound in PBS buffer at pH 7.4 by PAMPA-BBB assay
# Assay type: ADME
# Conditions: read-out: Peff
row,Compound,Papp
1,Cc1c(C)c2ccc(OCC3CCN(CCCO)CC3)cc2oc1=O,6 ×10⁻⁶ cm/s
2,Cc1c(C)c2ccc(OCC3CCCN(CCCC(F)F)C3)cc2oc1=O (racemic),13.3 ×10⁻⁶ cm/s

# Target: T2, Amine oxidase [flavin-containing] A (Homo sapiens, UniProt P21397)
# T2 sequence (P21397 whole entry): T1 sequence (P21397 whole entry)
# Assay: not given
# Conditions: not given
row,Compound,IC50
1,Cc1c(C)c2ccc(OCC3CCCN(CCCC(F)F)C3)cc2oc1=O (racemic),11 µM

# System: not listed separately
# Assay: Apparent permeability across basolateral to apical side in human Caco-2 cells at 10 uM incubated for 60 mins by HPLC-MS/MS method
# Assay type: ADME, cell-based
# Conditions: not given
row,Compound,"Papp B→A at 1 h, 10 µM"
1,Cc1c(C)c2ccc(OCC3CCN(CCCO)CC3)cc2oc1=O,22 ×10⁻⁶ cm/s

# Target: Acetylcholinesterase (Homo sapiens, UniProt P22303)
# Assay: not given
# Conditions: not given
# Sequence of Acetylcholinesterase (P22303 whole entry): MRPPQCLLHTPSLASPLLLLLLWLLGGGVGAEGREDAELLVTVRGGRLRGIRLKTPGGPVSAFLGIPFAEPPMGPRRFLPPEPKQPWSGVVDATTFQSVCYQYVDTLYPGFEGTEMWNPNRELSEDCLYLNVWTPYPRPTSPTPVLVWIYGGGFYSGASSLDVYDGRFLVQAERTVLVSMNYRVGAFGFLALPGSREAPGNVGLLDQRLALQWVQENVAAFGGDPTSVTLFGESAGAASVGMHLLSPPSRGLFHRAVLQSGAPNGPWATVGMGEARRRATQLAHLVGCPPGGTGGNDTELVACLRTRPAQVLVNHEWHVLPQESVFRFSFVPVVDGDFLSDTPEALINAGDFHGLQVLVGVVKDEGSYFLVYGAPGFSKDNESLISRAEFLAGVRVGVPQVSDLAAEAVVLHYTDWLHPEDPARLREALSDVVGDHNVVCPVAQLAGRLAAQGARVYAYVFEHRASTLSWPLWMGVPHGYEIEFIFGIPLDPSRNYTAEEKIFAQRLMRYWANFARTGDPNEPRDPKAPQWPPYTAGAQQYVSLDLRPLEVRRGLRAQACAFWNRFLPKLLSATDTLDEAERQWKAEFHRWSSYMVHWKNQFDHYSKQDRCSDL
row,Compound,IC50
1,Cc1c(C)c2ccc(OCc3ccc(CN(C)CCCC(F)F)cc3)cc2oc1=O,1500 nM
2,CN(Cc1ccccc1)Cc1ccc(COc2ccc3c(C(F)F)cc(=O)oc3c2)cc1,560 nM
3,Cc1c(C)c2ccc(OCC3CCCN(CCCC(F)F)C3)cc2oc1=O (racemic),480 nM

# System: not listed separately
# Assay: Apparent permeability across apical to basolateral side in human Caco-2 cells at 10 uM incubated for 60 mins by HPLC-MS/MS method
# Assay type: ADME, cell-based
# Conditions: not given
row,Compound,"Papp A→B at 1 h, 10 µM"
1,Cc1c(C)c2ccc(OCC3CCN(CCCO)CC3)cc2oc1=O,19 ×10⁻⁶ cm/s

# System: not listed separately
# Assay: Intrinsic clearance in human liver microsomes at 0.5 uM incubated upto 60 mins in presence of NADPH measured per mg protein by LC/MS/MS analysis
# Assay type: ADME, Microsome
# Conditions: read-out: CLH
row,Compound,microsomal CLint at 0.5 µM
1,Cc1c(C)c2ccc(OCC3CCN(CCCO)CC3)cc2oc1=O,< 11.5 µL/min/mg

# System: not listed separately
# Assay: Kinetic aqueous solubility of the compound in PBS incubated for 2 hrs under mild shaking at pH 7.4 by UV- vis spectrophotometric analysis
# Assay type: physicochemical
# Conditions: read-out: Kinetic_solubility
row,Compound,solubility kinetic at 2 h
1,Cc1c(C)c2ccc(OCc3ccc(CN(C)CCCC(F)F)cc3)cc2oc1=O,13 µM
2,CN(Cc1ccccc1)Cc1ccc(COc2ccc3c(C(F)F)cc(=O)oc3c2)cc1,0.4 µM
3,Cc1c(C)c2ccc(OCC3CCN(CCCO)CC3)cc2oc1=O,> 500 µM
4,Cc1c(C)c2ccc(OCC3CCCN(CCCC(F)F)C3)cc2oc1=O (racemic),349 µM

# System: SH-SY5Y
# Assay: Cytotoxicity against human SH-SY5Y cells assessed as reduction in cell viability at 1 to 100 uM incubated for 4 hrs by CellTiter-Glo luminescence assay
# Assay type: toxicity, cell-based
# Conditions: dose 1-100 µM
row,Compound,Activity
1,Cc1c(C)c2ccc(OCC3CCN(CCCO)CC3)cc2oc1=O,Non-Toxic

# Organism: Homo sapiens
# Assay: Selectivity for human recombinant MAO-B expressed in supersomes over human recombinant MAO-A expressed in supersomes
# Conditions: not given
row,Compound,Selectivity Index
1,CN(Cc1ccccc1)Cc1ccc(COc2ccc3c(C(F)F)cc(=O)oc3c2)cc1,> 73

# System: not listed separately
# Assay: Microsomal stability in human liver microsomes assessed as half life at 0.5 uM incubated upto 60 mins in presence of NADPH by LC/MS/MS analysis
# Assay type: ADME, Microsome
# Conditions: not given
row,Compound,half-life at 0.5 µM
1,Cc1c(C)c2ccc(OCC3CCN(CCCO)CC3)cc2oc1=O,> 120 min

# System: not listed separately
# Assay: Efflux ratio of apparent permeability across basolateral to apical side over apical to basolateral side in human Caco-2 cells
# Assay type: ADME, cell-based
# Conditions: not given
row,Compound,efflux ratio
1,Cc1c(C)c2ccc(OCC3CCN(CCCO)CC3)cc2oc1=O,1.2

# System: not listed separately
# Assay: Intrinsic clearance in mouse liver microsomes at 0.5 uM incubated upto 30 mins in presence of NADPH measured per mg protein by LC/MS/MS analysis
# Assay type: ADME, Microsome
# Conditions: read-out: CLH
row,Compound,microsomal CLint at 0.5 µM
1,CN(Cc1ccccc1)Cc1ccc(COc2ccc3c(C(F)F)cc(=O)oc3c2)cc1,142 µL/min/mg
2,Cc1c(C)c2ccc(OCC3CCN(CCCO)CC3)cc2oc1=O,29.5 µL/min/mg
3,Cc1c(C)c2ccc(OCC3CCCN(CCCC(F)F)C3)cc2oc1=O (racemic),78.1 µL/min/mg

# System: not listed separately
# Assay: Chromatographic hydrophobicity index of the compound in ammonium acetate buffer at pH 7.4 by RP-HPLC analysis
# Assay type: physicochemical
# Conditions: not given
row,Compound,CHI
1,Cc1c(C)c2ccc(OCc3ccc(CN(C)CCCC(F)F)cc3)cc2oc1=O,> 100
2,CN(Cc1ccccc1)Cc1ccc(COc2ccc3c(C(F)F)cc(=O)oc3c2)cc1,> 100
3,Cc1c(C)c2ccc(OCC3CCN(CCCO)CC3)cc2oc1=O,47.3
4,Cc1c(C)c2ccc(OCC3CCCN(CCCC(F)F)C3)cc2oc1=O (racemic),83.4

# Target: Cytochrome P450 3A4 (Homo sapiens, UniProt P08684)
# Assay: Inhibition of human recombinant CYP3A4 expressed in baculosomes by fluorescent homogenous assay
# Assay type: ADME
# Conditions: not given
# Sequence of Cytochrome P450 3A4 (P08684 whole entry): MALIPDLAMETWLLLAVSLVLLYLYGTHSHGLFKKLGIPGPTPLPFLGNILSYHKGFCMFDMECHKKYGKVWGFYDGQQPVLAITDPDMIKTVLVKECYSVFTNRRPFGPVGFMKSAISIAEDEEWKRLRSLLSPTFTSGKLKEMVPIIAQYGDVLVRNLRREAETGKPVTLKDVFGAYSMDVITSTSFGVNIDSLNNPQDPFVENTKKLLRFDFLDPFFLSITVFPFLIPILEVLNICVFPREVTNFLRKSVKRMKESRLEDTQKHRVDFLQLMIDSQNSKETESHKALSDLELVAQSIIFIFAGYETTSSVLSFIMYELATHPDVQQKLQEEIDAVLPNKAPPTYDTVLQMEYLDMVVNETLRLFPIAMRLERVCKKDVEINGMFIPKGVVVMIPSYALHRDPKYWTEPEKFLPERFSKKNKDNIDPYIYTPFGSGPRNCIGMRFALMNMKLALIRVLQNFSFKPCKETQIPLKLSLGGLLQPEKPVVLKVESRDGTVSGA
row,Compound,IC50
1,Cc1c(C)c2ccc(OCC3CCN(CCCO)CC3)cc2oc1=O,> 10 µM
2,Cc1c(C)c2ccc(OCC3CCCN(CCCC(F)F)C3)cc2oc1=O (racemic),> 10 µM

# System: HepG2
# Assay: Cytotoxicity against human HepG2 cells assessed as reduction in cell viability at 1 to 100 uM incubated for 4 hrs by CellTiter-Glo luminescence assay
# Assay type: toxicity, cell-based
# Conditions: hepg2, 4 h, dose 1-100 µM
row,Compound,Activity
1,Cc1c(C)c2ccc(OCC3CCN(CCCO)CC3)cc2oc1=O,Non-Toxic

# Target: Albumin (Homo sapiens, UniProt P02768)
# Assay: Binding affinity to human serum albumin assessed as dissociation […] constant by surface plasmon resonance assay
# Assay type: ADME, cell-free
# Conditions: not given
# Sequence of Albumin (P02768 whole entry): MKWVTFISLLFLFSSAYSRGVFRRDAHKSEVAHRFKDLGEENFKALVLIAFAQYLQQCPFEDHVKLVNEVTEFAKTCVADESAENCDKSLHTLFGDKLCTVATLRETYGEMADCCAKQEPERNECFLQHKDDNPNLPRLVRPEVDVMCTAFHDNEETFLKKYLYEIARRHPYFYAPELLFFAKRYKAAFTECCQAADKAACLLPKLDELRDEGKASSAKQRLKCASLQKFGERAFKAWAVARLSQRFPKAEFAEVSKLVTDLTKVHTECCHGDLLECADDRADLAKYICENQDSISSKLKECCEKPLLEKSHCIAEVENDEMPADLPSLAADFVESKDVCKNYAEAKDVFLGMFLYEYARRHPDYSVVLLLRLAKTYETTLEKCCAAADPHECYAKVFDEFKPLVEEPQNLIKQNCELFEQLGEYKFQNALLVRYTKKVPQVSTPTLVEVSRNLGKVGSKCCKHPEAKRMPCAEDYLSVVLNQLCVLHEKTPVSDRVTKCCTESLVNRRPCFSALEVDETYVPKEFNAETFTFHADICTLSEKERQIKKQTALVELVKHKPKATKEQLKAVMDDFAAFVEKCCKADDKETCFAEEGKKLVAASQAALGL
row,Compound,Kd
1,Cc1c(C)c2ccc(OCC3CCN(CCCO)CC3)cc2oc1=O,31.7 µM

# Target: Cholinesterase (Equus caballus, UniProt P81908)
# Assay: not given
# Conditions: not given
# Sequence of Cholinesterase (P81908 whole entry): as the sequence (P81908 whole entry) above
row,Compound,IC50
1,Cc1c(C)c2ccc(OCc3ccc(CN(C)CCCC(F)F)cc3)cc2oc1=O,4100 nM
2,CN(Cc1ccccc1)Cc1ccc(COc2ccc3c(C(F)F)cc(=O)oc3c2)cc1,430 nM

# System: not listed separately
# Assay: 1-Octanol/PBS buffer distribution coefficient, log D of the compound at 1 uM measured after 24 hrs at pH 7.4 by shake flask based HPLC-ES-MS/MS analysis
# Assay type: physicochemical
# Conditions: not given
row,Compound,"logD at 24 h, 1 µM"
1,Cc1c(C)c2ccc(OCc3ccc(CN(C)CCCC(F)F)cc3)cc2oc1=O,3.78
2,CN(Cc1ccccc1)Cc1ccc(COc2ccc3c(C(F)F)cc(=O)oc3c2)cc1,4.8
3,Cc1c(C)c2ccc(OCC3CCN(CCCO)CC3)cc2oc1=O,0.86
4,Cc1c(C)c2ccc(OCC3CCCN(CCCC(F)F)C3)cc2oc1=O (racemic),2.67

# Target: T3, Amine oxidase [flavin-containing] B (Homo sapiens, UniProt P27338)
# T3 sequence (P27338 whole entry): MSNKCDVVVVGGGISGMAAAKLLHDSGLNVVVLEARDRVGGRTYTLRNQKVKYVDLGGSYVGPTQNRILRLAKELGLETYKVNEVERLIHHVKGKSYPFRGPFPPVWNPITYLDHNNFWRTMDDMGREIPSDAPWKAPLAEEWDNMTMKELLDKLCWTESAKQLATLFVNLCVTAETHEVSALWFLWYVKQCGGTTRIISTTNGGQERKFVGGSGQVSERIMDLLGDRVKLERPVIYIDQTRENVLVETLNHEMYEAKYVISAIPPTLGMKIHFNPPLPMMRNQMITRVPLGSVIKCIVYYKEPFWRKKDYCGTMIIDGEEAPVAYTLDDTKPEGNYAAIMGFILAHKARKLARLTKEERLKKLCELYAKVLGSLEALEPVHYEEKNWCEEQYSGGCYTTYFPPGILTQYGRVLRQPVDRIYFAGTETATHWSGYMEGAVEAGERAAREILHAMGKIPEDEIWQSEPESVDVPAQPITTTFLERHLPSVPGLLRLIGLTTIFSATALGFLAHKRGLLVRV
# Assay: not given
# Conditions: not given
row,Compound,IC50
1,Cc1c(C)c2ccc(OCc3ccc(CN(C)CCCC(F)F)cc3)cc2oc1=O,160 nM
2,CN(Cc1ccccc1)Cc1ccc(COc2ccc3c(C(F)F)cc(=O)oc3c2)cc1,130 nM
3,Cc1c(C)c2ccc(OCC3CCCN(CCCC(F)F)C3)cc2oc1=O (racemic),260 nM
